Test results reported in ChEMBL document CHEMBL1201862, “PubChem BioAssay data set” (2004).
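Tested at 5 concentrations; 48 h exposure; 96-well plates; endpoints linearly interpolated, else capped at highest concentration. GI50 = concentration required for 50% inhibition of growth.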 Calls of active or inactive are those of the source. Rule as the data show it: active = GI50 up to about 1.1 µM and inactive = higher.

Columns and labels:
Experiment in all cases: inhibition of tumour cell growth, NCI panel, 48 h
SN12C = tested on: SN12C
OVCAR-8 = tested on: OVCAR-8
HCT-15 = tested on: HCT-15
LOX IMVI = tested on: LOX IMVI
SF-539 = tested on: SF-539
COLO 205 = tested on: COLO 205
UACC-257 = tested on: UACC-257
SR = tested on: SR
NCI-H460 = tested on: NCI-H460
K562 = tested on: K562
MOLT-4 = tested on: MOLT-4
MCF7 = tested on: MCF7
KM12 = tested on: KM12
HOP-62 = tested on: HOP-62
SNB-75 = tested on: SNB-75
RXF 393 = tested on: RXF 393
M14 = tested on: M14
SK-OV-3 = tested on: SK-OV-3
NCI-H522 = tested on: NCI-H522
MDA-MB-435 = tested on: MDA-MB-435
IGROV-1 = tested on: IGROV-1
CAKI-1 = tested on: CAKI-1
PC-3 = tested on: PC-3
DU-145 = tested on: DU-145
Malme-3M = tested on: Malme-3M
HOP-92 = tested on: HOP-92
UO-31 = tested on: UO-31
UACC-62 = tested on: UACC-62
MDA-MB-231 = tested on: MDA-MB-231
SW-620 = tested on: SW-620
ACHN = tested on: ACHN
CCRF-CEM = tested on: CCRF-CEM
HL-60 = tested on: HL-60
A549 = tested on: A549
SK-MEL-5 = tested on: SK-MEL-5
EKVX = tested on: EKVX
A498 = tested on: A498
TK-10 = tested on: TK-10
NCI-H226 = tested on: NCI-H226
NCI/ADR-RES = tested on: NCI/ADR-RES
RPMI-8226 = tested on: RPMI-8226
OVCAR-4 = tested on: OVCAR-4
SNB-19 = tested on: SNB-19
SF-295 = tested on: SF-295
Hs-578T = tested on: Hs-578T
786-0 = tested on: 786-0
MDA-N = tested on: MDA-N
NCI-H23 = tested on: NCI-H23
HCT-116 = tested on: HCT-116
BT-549 = tested on: BT-549
T47D = tested on: T47D
SF-268 = tested on: SF-268
U-251 = tested on: U-251
HT-29 = tested on: HT-29
OVCAR-5 = tested on: OVCAR-5
OVCAR-3 = tested on: OVCAR-3
SK-MEL-28 = tested on: SK-MEL-28
SK-MEL-2 = tested on: SK-MEL-2

Measured: GI50

C[Si](C)(C)C#Cc1cc(-c2nc3ccccc3s2)ccc1N
16.9 µM: HCT-15
active: MCF7 0.491 µM | IGROV-1 < 0.01 µM
inactive: SN12C 15.5 µM | OVCAR-8 16.7 µM | LOX IMVI 17.8 µM | SF-539 18.7 µM | COLO 205 15.5 µM | UACC-257 19.5 µM | SR 26.4 µM | NCI-H460 15.9 µM | K562 27.8 µM | MOLT-4 29.2 µM | KM12 15.2 µM | HOP-62 16.2 µM | SNB-75 12.7 µM | RXF 393 17.5 µM | M14 16.5 µM | SK-OV-3 19 µM | NCI-H522 13.9 µM | MDA-MB-435 18.3 µM | CAKI-1 14.2 µM | PC-3 16.2 µM | DU-145 26.6 µM | Malme-3M 3.35 µM | HOP-92 11.5 µM | UO-31 13.4 µM | UACC-62 16.3 µM | MDA-MB-231 17.2 µM | SW-620 18.1 µM | ACHN 15.7 µM | CCRF-CEM 21.7 µM | HL-60 23.3 µM | A549 19.4 µM | SK-MEL-5 15.5 µM | EKVX 12 µM | A498 19.9 µM | TK-10 11.7 µM | NCI-H226 14.4 µM | NCI/ADR-RES 17.5 µM | RPMI-8226 21.8 µM | OVCAR-4 14.9 µM | SNB-19 18.7 µM | SF-295 18.6 µM | Hs-578T 20.8 µM | 786-0 17 µM | MDA-N 17.8 µM | NCI-H23 18.5 µM | HCT-116 13.7 µM | BT-549 18.3 µM | T47D 18.7 µM | SF-268 16.8 µM | U-251 19.2 µM | HT-29 20.1 µM | OVCAR-5 16.5 µM | OVCAR-3 17.3 µM

COC(=O)Nc1nc2cc(S(=O)(=O)N3CCOCC3)ccc2[nH]1
inactive: SN12C > 100 µM | SK-MEL-28 49.7 µM | OVCAR-8 > 100 µM | LOX IMVI > 100 µM | SF-539 12.4 µM | COLO 205 > 100 µM | UACC-257 > 100 µM | SR 51.1 µM | NCI-H460 > 100 µM | K562 44.7 µM | MOLT-4 94.4 µM | MCF7 > 100 µM | KM12 65.5 µM | HOP-62 91.8 µM | SNB-75 69.8 µM | RXF 393 > 100 µM | M14 > 100 µM | SK-OV-3 > 100 µM | NCI-H522 > 100 µM | MDA-MB-435 26.4 µM | IGROV-1 > 100 µM | CAKI-1 > 100 µM | PC-3 > 100 µM | DU-145 > 100 µM | Malme-3M > 100 µM | HOP-92 > 100 µM | UO-31 > 100 µM | UACC-62 > 100 µM | MDA-MB-231 > 100 µM | SW-620 54.1 µM | ACHN > 100 µM | CCRF-CEM 52.8 µM | HL-60 6.21 µM | A549 > 100 µM | SK-MEL-5 > 100 µM | EKVX > 100 µM | A498 > 100 µM | TK-10 80.2 µM | NCI-H226 > 100 µM | NCI/ADR-RES > 100 µM | RPMI-8226 30.3 µM | OVCAR-4 > 100 µM | SNB-19 > 100 µM | SF-295 > 100 µM | Hs-578T > 100 µM | 786-0 > 100 µM | MDA-N 27.6 µM | NCI-H23 > 100 µM | HCT-116 > 100 µM | BT-549 > 100 µM | T47D > 100 µM | SF-268 > 100 µM | U-251 > 100 µM | HT-29 > 100 µM | SK-MEL-2 > 100 µM | OVCAR-5 > 100 µM | OVCAR-3 > 100 µM
> 100 µM: HCT-15
